How the values were obtained:
bedstraw = test: Test B pre/postemergence bedstraw; format: in vivo, Galium aparine
Method in brief: (§1)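 Herbicidal effect was estimated by eye on a ten-point control scale after plants spent twelve to sixteen days in a greenhouse following soil or foliar treatment. Foliar sprays targeted plants at one to four leaves; all doses were formulated in a non-phytotoxic solvent with surfactant.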

blackgrass = test: Test B pre/postemergence blackgrass; format: in vivo, Alopecurus myosuroides
Method in brief: as §1

surinam grass = test: Test B pre/postemergence surinam grass; format: in vivo, Brachiaria decumbens
Method in brief: as §1

cocklebur = test: Test B pre/postemergence cocklebur; format: in vivo, Xanthium strumarium
Method in brief: as §1

corn = test: Test B pre/postemergence corn; format: in vivo, Zea mays
Method in brief: as §1

crabgrass = test: Test B pre/postemergence crabgrass; format: in vivo, Digitaria sanguinalis
Method in brief: as §1

giant foxtail = test: Test B pre/postemergence giant foxtail; format: in vivo, Setaria faberii
Method in brief: as §1

morningglory = test: Test B pre/postemergence morningglory; format: in vivo, Ipomoea hederacea
Method in brief: as §1

pigweed = test: Test B pre/postemergence pigweed; format: in vivo, Amaranthus retroflexus
Method in brief: as §1

rape = test: Test B pre/postemergence rape; format: in vivo, Brassica napus
Method in brief: as §1

soybean = test: Test B pre/postemergence soybean; format: in vivo, Glycine max
Method in brief: as §1

sugar beet = test: Test B pre/postemergence sugar beet; format: in vivo, Beta vulgaris
Method in brief: as §1

velvetleaf = test: Test B pre/postemergence velvetleaf; format: in vivo, Abutilon theophrasti
Method in brief: as §1

wheat = test: Test B pre/postemergence wheat; format: in vivo, Triticum aestivum
Method in brief: as §1

wild oat = test: Test B pre/postemergence wild oat; format: in vivo, Avena fatua
Method in brief: as §1

purple nutsedge = test: Test B pre/postemergence purple nutsedge; format: in vivo, Cyperus rotundus
Method in brief: as §1

[1] = Postemergence, Rate 62 g/ha, scale of 0 to 10, 0 is no effect, 10 is complete control
[2] = Postemergence, Rate 125 g/ha, scale 0 to 10, 0 is no effect, 10 is complete control
[3] = Preemergence, Rate 62 g/ha, scale 0 to 10 (0 no effect, 10 complete control)
[4] = Preemergence, Rate 125 g/ha, scale 0 to 10, 0 is no effect, 10 is complete control
[5] = Preemergence, Rate 500 g/ha, scale of 0 to 10 where 0 is no effect and 10 is complete control
[6] = Rate 250 g/ha, Postemergence, scale of 0 to 10 where 0 is no effect and 10 is complete control
[7] = Postemergence, Rate 500 g/ha, scale 0 to 10, 0 is no effect, 10 is complete control

Compound: CC(C)N(C(=O)n1oc(=O)n(CCCC(F)(F)F)c1=O)c1ccc(Cl)cc1 [Compound 555]
- Bedstraw plant response rating (bedstraw; [1]): 2
- Bedstraw plant response rating (bedstraw; [2]): 9
- Bedstraw plant response rating (bedstraw; [3]): 0
- Bedstraw plant response rating (bedstraw; [4]): 0
- Bedstraw plant response rating (0 to 10 scale) (bedstraw; Preemergence, Rate 250 g/ha): 0
- Bedstraw plant response rating (bedstraw; [5]): 0
- Plant response rating, Bedstraw (bedstraw; [6]): 9
- Blackgrass plant response rating (blackgrass; [1]): 0
- Blackgrass plant response rating (blackgrass; [2]): 2
- Plant response rating, Blackgrass (blackgrass; [7]): 5
- Blackgrass plant response rating (blackgrass; [3]): 0
- Blackgrass plant response rating (blackgrass; [4]): 0
- Blackgrass plant response rating (0 to 10 scale) (blackgrass; Preemergence, Rate 250 g/ha): 0
- Blackgrass plant response rating (blackgrass; [5]): 8
- Plant response rating, Blackgrass (blackgrass; [6]): 2
- B. signalgrass plant response rating (surinam grass; [1]): 0
- B. signalgrass plant response rating (surinam grass; [2]): 0
- Plant response rating, B. signalgrass (surinam grass; [7]): 4
- B. signalgrass plant response rating (surinam grass; [3]): 6
- B. signalgrass plant response rating (surinam grass; [5]): 8
- Plant response rating, B. signalgrass (surinam grass; [6]): 0
- Cocklebur plant response rating (cocklebur; [1]): 0
- Cocklebur plant response rating (cocklebur; [2]): 0
- Plant response rating, Cocklebur (cocklebur; [7]): 3
- Cocklebur plant response rating (cocklebur; [3]): 0
- Cocklebur plant response rating (cocklebur; [4]): 0
- Cocklebur plant response rating (0 to 10 scale) (cocklebur; Preemergence, Rate 250 g/ha): 2
- Cocklebur plant response rating (cocklebur; [5]): 9
- Plant response rating, Cocklebur (cocklebur; [6]): 0
- Corn plant response rating (corn; [1]): 0
- Corn plant response rating (corn; [2]): 0
- Plant response rating, Corn (corn; [7]): 0
- Corn plant response rating (corn; [3]): 0
- Corn plant response rating (corn; [4]): 0
- Corn plant response rating (0 to 10 scale) (corn; Preemergence, Rate 250 g/ha): 0
- Corn plant response rating (corn; [5]): 2
- Plant response rating, Corn (corn; [6]): 0
- Crabgrass plant response rating (crabgrass; [1]): 0
- Crabgrass plant response rating (crabgrass; [2]): 0
- Plant response rating, Crabgrass (crabgrass; [7]): 10
- Crabgrass plant response rating (crabgrass; [3]): 9
- Crabgrass plant response rating (crabgrass; [4]): 9
- Crabgrass plant response rating (0 to 10 scale) (crabgrass; Preemergence, Rate 250 g/ha): 10
- Crabgrass plant response rating (crabgrass; [5]): 10
- Plant response rating, Crabgrass (crabgrass; [6]): 9
- Giant foxtail plant response rating (giant foxtail; [1]): 0
- Giant foxtail plant response rating (giant foxtail; [2]): 0
- Plant response rating, Giant foxtail (giant foxtail; [7]): 8
- Giant foxtail plant response rating (giant foxtail; [3]): 9
- Giant foxtail plant response rating (giant foxtail; [4]): 10
- Giant foxtail plant response rating (0 to 10 scale) (giant foxtail; Preemergence, Rate 250 g/ha): 10
- Giant foxtail plant response rating (giant foxtail; [5]): 10
- Plant response rating, Giant foxtail (giant foxtail; [6]): 8
- Morningglory plant response rating (morningglory; [1]): 1
- Morningglory plant response rating (morningglory; [2]): 2
- Plant response rating, Morningglory (morningglory; [7]): 6
- Morningglory plant response rating (morningglory; [3]): 0
- Morningglory plant response rating (morningglory; [4]): 0
- Morningglory plant response rating (0 to 10 scale) (morningglory; Preemergence, Rate 250 g/ha): 0
- Morningglory plant response rating (morningglory; [5]): 0
- Plant response rating, Morningglory (morningglory; [6]): 5
- Redroot pigweed plant response rating (pigweed; [1]): 0
- Plant response rating, Redroot pigweed (pigweed; [7]): 2
- Redroot pigweed plant response rating (pigweed; [3]): 0
- Redroot pigweed plant response rating (pigweed; [4]): 0
- Redroot pigweed plant response rating (0 to 10 scale) (pigweed; Preemergence, Rate 250 g/ha): 3
- Redroot pigweed plant response rating (pigweed; [5]): 7
- Plant response rating, Redroot pigweed (pigweed; [6]): 2
- Rape plant response rating (rape; [1]): 4
- Rape plant response rating (rape; [2]): 5
- Plant response rating, Rape (rape; [7]): 5
- Rape plant response rating (rape; [3]): 0
- Rape plant response rating (rape; [4]): 0
- Rape plant response rating (0 to 10 scale) (rape; Preemergence, Rate 250 g/ha): 0
- Rape plant response rating (rape; [5]): 0
- Soybean plant response rating (soybean; [1]): 1
- Plant response rating, Soybean (soybean; [7]): 2
- Soybean plant response rating (soybean; [3]): 0
- Soybean plant response rating (soybean; [4]): 0
- Soybean plant response rating (0 to 10 scale) (soybean; Preemergence, Rate 250 g/ha): 0
- Soybean plant response rating (soybean; [5]): 2
- Plant response rating, Soybean (soybean; [6]): 2
- Sugarbeets plant response rating (sugar beet; [1]): 0
- Plant response rating, Sugarbeets (sugar beet; [7]): 0
- Sugarbeets plant response rating (sugar beet; [3]): 2
- Sugarbeets plant response rating (sugar beet; [4]): 5
- Sugarbeets plant response rating (sugar beet; [5]): 5
- Plant response rating, Sugarbeets (sugar beet; [6]): 0
- Velvetleaf plant response rating (velvetleaf; [1]): 0
- Plant response rating, Velvetleaf (velvetleaf; [7]): 4
- Velvetleaf plant response rating (velvetleaf; [3]): 0
- Velvetleaf plant response rating (velvetleaf; [4]): 0
- Velvetleaf plant response rating (0 to 10 scale) (velvetleaf; Preemergence, Rate 250 g/ha): 0
- Velvetleaf plant response rating (velvetleaf; [5]): 6
- Plant response rating, Velvetleaf (velvetleaf; [6]): 2
- Wheat plant response rating (wheat; [1]): 6
- Plant response rating, Wheat (wheat; [7]): 2
- Wheat plant response rating (wheat; [3]): 0
- Wheat plant response rating (wheat; [4]): 0
- Wheat plant response rating (0 to 10 scale) (wheat; Preemergence, Rate 250 g/ha): 2
- Wheat plant response rating (wheat; [5]): 3
- Plant response rating, Wheat (wheat; [6]): 0
- Wild oats plant response rating (wild oat; [1]): 0
- Plant response rating, Wild oats (wild oat; [7]): 2
- Wild oats plant response rating (wild oat; [3]): 0
- Wild oats plant response rating (wild oat; [4]): 0
- Wild oats plant response rating (0 to 10 scale) (wild oat; Preemergence, Rate 250 g/ha): 0
- Wild oats plant response rating (wild oat; [5]): 7
- Plant response rating, Wild oats (wild oat; [6]): 0
- Nutsedge plant response rating (purple nutsedge; [1]): 0
- Nutsedge plant response rating (purple nutsedge; [2]): 0
- Plant response rating, Nutsedge (purple nutsedge; [7]): 0
- Nutsedge plant response rating (purple nutsedge; [3]): 0
- Nutsedge plant response rating (purple nutsedge; [4]): 0
- Nutsedge plant response rating (0 to 10 scale) (purple nutsedge; Preemergence, Rate 250 g/ha): 0
- Nutsedge plant response rating (purple nutsedge; [5]): 0
- Plant response rating, Nutsedge (purple nutsedge; [6]): 0

From patent US6737383B1, “Herbicidal oxadiazolidines” (priority 1999, dated 2004)
